Reference: ChEMBL document CHEMBL1949604, “Drug-like properties: guiding principles for the design of natural product libraries” (J Nat Prod, 2012)

Tests used:
[1] = tested on: Trypanosoma brucei brucei; test: Antitrypanosomal activity against Trypanosoma brucei brucei; format: functional, organism-based
[2] = tested on: Trypanosoma brucei brucei; test: Antitrypanosomal activity against Trypanosoma brucei brucei at 80 uM; format: functional

Row | IC50 [1] | SMILES | inhibition at 80 µM [2]
1 | 77 nM | c1ccc2c(c1)Nc1cc3cccnc3c3nccc-2c13 | –
2 | 32 nM | O=C1c2cccnc2-c2nccc3c2c1nc1ccccc13 [ASCIDIDEMIN] | –
3 | 1330 nM | c1ccc2c(c1)nc1c3nc4ccccc4c4ccnc(c5nccc2c51)c43 [EILATIN] | –
4 | – | COC1=C(Br)[C@H](O)[C@@]2(C=C1Br)CC(C(=O)NCCCn1cnc(CCNC(=O)C3=NO[C@]4(C=C(Br)C(OC)=C(Br)[C@@H]4O)C3)c1)=NO2 [PSEUDOCERATINAZOLE A] | 80%
